Results published in patent US12115208B2, “Small-molecule adjuvants for antibiotics to address antibiotic resistance” (HIGH POINT UNIVERSITY, priority 2017, dated 2024).
Like-named read-outs stand apart in the source and are kept apart here. Blank lines part the entries; values can stand above or below the compound they belong to.

How the values were obtained:
[1] = tested on: S. aureus 43300 (MRSA); test: Antibiotic repotentiation (antibiotic MIC with/without compound); type: cell-based, Staphylococcus aureus
Protocol: (§1) The overnight culture was diluted into fresh CAMHB to a concentration of 5×10^5 CFU/ml. […] On the same plate, a standard microdilution MIC with the tested antibiotics and no added compound was also performed to compare the antibiotic MIC in the presence and absence of compound. […] Fold reductions were calculated by dividing the MIC of the antibiotic without compound by the MIC of the antibiotic in the presence of compound.
(§2) The compounds were then analyzed for antibiotic repotentiation activity. […] The tested strains included USA300, which is a common and particularly virulent strain of community-acquired MRSA.

[2] = tested on: S. aureus USA300 (MRSA); test: as above; type: cell-based, Staphylococcus aureus; conditions: MRSA USA300
Protocol: as §1, §2

[3] = tested on: S. aureus NR-49120 (VRSA); test: as above; type: cell-based, Staphylococcus aureus; conditions: VRSA NR-49120; for Fold Reduction: antibiotic MIC
Protocol: as §1

[4] = tested on: S. aureus USA100 (MRSA); test: as above; type: cell-based, Staphylococcus aureus; conditions: MRSA USA100; for Fold Reduction: antibiotic MIC
Protocol: as §1

[5] = tested on: S. aureus ATCC 43300 (MRSA); test: Minimum inhibitory concentration, broth microdilution; type: cell-based, Staphylococcus aureus; conditions: compound alone; S. aureus ATCC 43300 (MRSA); CAMHB, 18 h; read-out: MIC
Protocol: as §2

[6] = tested on: S. epidermidis ATCC 49461 biofilm; test: Biofilm inhibition, crystal violet assay; type: cell-based, Staphylococcus epidermidis; conditions: read-out: Inhibition of biofilm formation IC50
Protocol: A standard static crystal violet assay was used to quantify biofilm inhibition.^45 Cultures of S. aureus or S. epidermidis were grown overnight in TSBG (tryptic soy broth with 5% glucose) at 37° C. with shaking. These cultures were used to inoculate fresh TSBG to a calculated optical density of 0.01 at 600 nm (OD600). […] Untreated aliquots were used as a positive control and water served as a negative control. 100 μl of these suspensions were added to the wells of a 96-well polyvinylchloride microtiter plate. […] After incubation, media was discarded and the plates were washed with water to remove non-adherent cells. Adherent biofilms were stained with 110 μl of crystal violet (0.1% in water) and incubated at room temperature for thirty minutes. The crystal violet staining solution was discarded and plates were washed with water to remove excess stain. The resulting stained biofilms were solubilized with 200 μL of 95% ethanol for 10 minutes. 125 μl of the ethanol solutions were transferred to a clear polystyrene microtiter plate for evaluation. Absorbance at 540 nm was recorded using a BioTek Synergy H1 microplate reader. The absorbance of the negative control lanes was subtracted from the experimental values to account for background staining. Percent inhibition was calculated by comparison of the absorbance values of control versus treated wells under identical conditions.

[7] = +50 μM compound, S. aureus 43300 (MRSA)
[8] = oxacillin MIC, +50 μM compound, S. aureus 43300 (MRSA)
[9] = Staphylococcus epidermidis, ATCC49461, 30 h
[10] = +100 μM compound, S. aureus 43300 (MRSA)
[11] = oxacillin MIC, +100 μM compound, S. aureus 43300 (MRSA)
[12] = +75 μM compound, S. aureus 43300 (MRSA)
[13] = oxacillin MIC, +75 μM compound, S. aureus 43300 (MRSA)
[14] = +31.25 μM compound, S. aureus 43300 (MRSA)
[15] = oxacillin MIC, +31.25 μM compound, S. aureus 43300 (MRSA)

Compound: CN[C@H](CC(C)C)C(=O)N[C@H]1C(=O)N[C@@H](CC(N)=O)C(=O)N[C@H]2C(=O)N[C@H]3C(=O)N[C@H](C(=O)N[C@H](C(=O)O)c4cc(O)cc(O)c4-c4cc3ccc4O)[C@H](O)c3ccc(c(Cl)c3)Oc3cc2cc(c3O[C@@H]2O[C@H](CO)[C@@H](O)[C@H](O)[C@H]2O[C@H]2C[C@](C)(N)[C@H](O)[C@H](C)O2)Oc2ccc(cc2Cl)[C@H]1O [Vancomycin]
MIC of antibiotic ([1]; +Amoxapine (150 μM), S. aureus 43300 (MRSA)): 2 µg/mL
MIC of antibiotic ([1]; +Loratadine 25 μM, MRSA 43300): 1 µg/mL
MIC of antibiotic ([1]; +Loratadine 50 μM, MRSA 43300): 1 µg/mL
Fold Reduction ([1]; antibiotic MIC, +Amoxapine (150 μM), S. aureus 43300 (MRSA)): 1
Fold Reduction ([1]; antibiotic MIC, +Loratadine 25 μM, MRSA 43300): 1
Fold Reduction ([1]; antibiotic MIC, +Loratadine 50 μM, MRSA 43300): 1
MIC of antibiotic ([1]; antibiotic alone, no compound, S. aureus 43300 (MRSA)): 2 µg/mL
MIC of antibiotic ([1]; antibiotic alone, S. aureus ATCC 43300 (MRSA)): 1 µg/mL
MIC of antibiotic ([2]; +Loratadine 25 μM): 1 µg/mL
MIC of antibiotic ([2]; +Loratadine 50 μM): 1 µg/mL
MIC of antibiotic ([2]; antibiotic alone): 1 µg/mL
MIC of antibiotic ([3]; +Loratadine 25 μM): 512 µg/mL
MIC of antibiotic ([3]; +Loratadine 50 μM): 128 µg/mL
Fold Reduction ([3]; +Loratadine 25 μM): 2
Fold Reduction ([3]; +Loratadine 50 μM): 8
MIC of antibiotic ([3]; antibiotic alone): 1024 µg/mL
MIC of antibiotic ([4]; +Loratadine 25 μM): 2 µg/mL
MIC of antibiotic ([4]; +Loratadine 50 μM): 2 µg/mL
Fold Reduction ([4]; +Loratadine 25 μM): 1
Fold Reduction ([4]; +Loratadine 50 μM): 1
MIC of antibiotic ([4]; antibiotic alone): 2 µg/mL

Oxacillin MIC ([1]; +62.5 μM compound, S. aureus 43300 (MRSA)): 32 µg/mL
MIC [5]: 250 µM
IC50 ([6]; 30 h): > 100 µM
Compound: Oc1ccnc2c1ccc1c(O)ccnc12 [Compound V-11]
Fold Reduction ([1]; oxacillin MIC, +62.5 μM compound, S. aureus 43300 (MRSA)): 1

Oxacillin MIC [1, 7]: 16 µg/mL
Compound: NC(=O)N1c2ccccc2C=Cc2ccccc21 [Compound I-2]
Fold Reduction [1, 8]: 1

Oxacillin MIC [1, 7]: 32 µg/mL
Compound: Clc1ccc2c(c1)N(Cc1ccccc1)c1ccccc1CC2 [II-6]
Fold Reduction [1, 8]: 1

Oxacillin MIC [1, 7]: 16 µg/mL
Compound: Cc1ccnc2c1NC(=O)c1cccnc1N2C1CC1 [Compound I-1]
Fold Reduction [1, 8]: 1

Oxacillin MIC ([1]; +[…] compound, S. aureus 43300 (MRSA)): 16 µg/mL
MIC [5]: 6.25 µM
IC50 ([6]; 30 h): > 100 µM
Compound: c1ccc(-c2ccnc3c2ccc2c(-c4ccccc4)ccnc23)cc1 [Compound V-13]

Oxacillin MIC [1, 7]: 16 µg/mL
Compound: CCCCCN1c2ccccc2CCc2ccc(Cl)cc21 [II-3]
Fold Reduction [1, 8]: 2

Oxacillin MIC [1, 7]: 32 µg/mL
Compound: CCCCCCCCN1c2ccccc2CCc2ccc(Cl)cc21 [II-4]
Fold Reduction [1, 8]: 1

Oxacillin MIC ([1]; +7.8125 μM compound, S. aureus 43300 (MRSA)): 16 µg/mL
MIC [5]: 31.25 µM
IC50 ([6]; 30 h): > 100 µM
Compound: O=[N+]([O-])c1cc2cccnc2c2ncccc12 [Compound V-7]
Fold Reduction ([1]; oxacillin MIC, +7.8125 μM compound, S. aureus 43300 (MRSA)): 2

IC50 [6, 9]: 62.2 µM
Compound: CC(C)c1ccc(CN2CCC(=C3c4ccc(Cl)cc4CCc4cccnc43)CC2)cc1 [III-5, 8-chloro-11-(1-(4-isopropylbenzyl)piperidin-4-ylidene)-6,11-dihydro-5H-benzo[5,6]cyclohepta[1,2-b]pyridine]
Fold Reduction [1, 8]: 16

Oxacillin MIC [1, 10]: 32 µg/mL
MIC [5]: 1000 µM
IC50 ([6]; 30 h): 38.5 µM
Compound: Clc1ccc2ccc3cccnc3c2n1 [Compound V-5]
Fold Reduction [1, 11]: 1

IC50 [6, 9]: > 80 µM
Compound: CCCCCCCCCN1CCC(=C2c3ccc(Cl)cc3CCc3cccnc32)CC1 [III-3, 8-chloro-11-(1-nonylpiperidin-4-ylidene)-6,11-dihydro-5H-benzo[5,6]cyclohepta[1,2-b]pyridine]
Fold Reduction [1, 8]: 1

Oxacillin MIC [1, 12]: 8 µg/mL
MIC [5]: >250 µM
IC50 ([6]; 30 h): > 100 µM
Compound: Brc1cc2ccccc2c2ccccc12 [Compound V-3]
Fold Reduction [1, 13]: 4

IC50 [6, 9]: 26.9 µM
Compound: CCCCCN1CCC(=C2c3ccc(Cl)cc3CCc3cccnc32)CC1 [III-2, 8-chloro-11-(1-pentylpiperidin-4-ylidene)-6,11-dihydro-5H-benzo[5,6]cyclohepta[1,2-b]pyridine]
Fold Reduction [1, 8]: 32

Oxacillin MIC [1, 14]: 2 µg/mL
MIC [5]: 125 µM
IC50 ([6]; 30 h): 78.9 µM
Compound: Cc1cc2cccnc2c2ncccc12 [Compound V-8]
Fold Reduction [1, 15]: 16

Oxacillin MIC [1, 7]: 32 µg/mL
Compound: CCN1c2ccccc2CCc2ccc(Cl)cc21 [II-2]
Fold Reduction [1, 8]: 1

Oxacillin MIC [1, 7]: 16 µg/mL
Compound: O=c1c2ccccc2ccc2ccccc12 [Compound I-3]
Fold Reduction [1, 8]: 1

Compound: Clc1ccc2c(c1)C(NC1CCCCC1)=Nc1ccccc1O2 [II-10]
Oxacillin MIC [1, 7]: 32 µg/mL
Fold Reduction [1, 8]: 1

Oxacillin MIC [1, 7]: 16 µg/mL
Compound: O=C1CCCNc2cc(Cl)ccc21 [Compound I-6]
Fold Reduction [1, 8]: 1

Oxacillin MIC [1, 14]: 8 µg/mL
MIC [5]: 125 µM
IC50 ([6]; 30 h): 51.8 µM
Compound: c1cnc2c(c1)ccc1cccnc12 [Compound V-4]
Fold Reduction [1, 15]: 4

Compound: CCCCCNC1=Nc2ccccc2Oc2ccc(Cl)cc21 [II-8]
Oxacillin MIC [1, 7]: 32 µg/mL
Fold Reduction [1, 8]: 1

Oxacillin MIC [1, 14]: 32 µg/mL
MIC [5]: 125 µM
IC50 ([6]; 30 h): < 5 µM
Compound: Cc1ccc2ccc3ccc(C)nc3c2n1 [Compound V-9]
Fold Reduction [1, 15]: 1

Oxacillin MIC [1, 7]: 8 µg/mL
Compound: C=CCN1c2ccccc2CCc2ccc(Cl)cc21 [II-5]
Fold Reduction [1, 8]: 4

IC50 [6, 9]: > 80 µM
Compound: CCCCN1CCC(=C2c3ccc(Cl)cc3CCc3cccnc32)CC1 [III-1, 11-(1-butylpiperidin-4-ylidene)-8-chloro-6,11-dihydro-5H-benzo[5,6]cyclohepta[1,2-b]pyridine]
Fold Reduction [1, 8]: 1

Oxacillin MIC [1, 7]: 16 µg/mL
Compound: C1=Cc2ccccc2Nc2ccccc21 [Compound I-4]
Fold Reduction [1, 8]: 1

Oxacillin MIC [1, 10]: 32 µg/mL
MIC [5]: 1000 µM
IC50 ([6]; 30 h): 84.6 µM
Compound: c1cnc2ccc3ncccc3c2c1 [Compound V-2]
Fold Reduction [1, 11]: 1

Compound: CCCCCCCCNC1=Nc2ccccc2Oc2ccc(Cl)cc21 [II-9]
Oxacillin MIC [1, 7]: 32 µg/mL
Fold Reduction [1, 8]: 1

Oxacillin MIC [1, 12]: 32 µg/mL
MIC [5]: >500 µM
IC50 ([6]; 30 h): 27.3 µM
Compound: Clc1ccnc2c1ccc1c(Cl)ccnc12 [Compound V-10]
Fold Reduction [1, 13]: 1

Oxacillin MIC ([1]; +0.78 μM compound, S. aureus 43300 (MRSA)): 32 µg/mL
MIC [5]: 3.125 µM
IC50 ([6]; 30 h): > 100 µM
Compound: Cc1cnc2c(ccc3c(C)c(C)cnc32)c1C [Compound V-14]
Fold Reduction ([1]; oxacillin MIC, +0.78 μM compound, S. aureus 43300 (MRSA)): 1

Oxacillin MIC [1, 10]: 32 µg/mL
MIC [5]: >2000 µM
IC50 ([6]; 30 h): > 100 µM
Compound: c1ccc(-c2ccccn2)nc1 [Compound V-1]
Fold Reduction [1, 11]: 1

Compound: NC1=Nc2ccccc2Oc2ccc(Cl)cc21 [II-7]
Oxacillin MIC [1, 7]: 32 µg/mL
Fold Reduction [1, 8]: 1

IC50 [6, 9]: > 50 µM
Compound: Clc1ccc2c(c1)CCc1cccnc1C2=C1CCN(Cc2ccccc2)CC1 [III-4]
Fold Reduction [1, 8]: 1

Oxacillin MIC ([1]; +7.8 μM compound, S. aureus 43300 (MRSA)): 4 µg/mL
MIC [5]: 31.25 µM
IC50 ([6]; 30 h): > 100 µM
Compound: COc1ccnc2c1ccc1c(OC)ccnc12 [Compound V-12]
Fold Reduction ([1]; oxacillin MIC, +7.8 μM compound, S. aureus 43300 (MRSA)): 8
